# From patent US8188059B2, “Compounds and methods for modulating expression of GCGR” (Isis Pharmaceuticals, Inc., priority 2006, dated 2012)
# e = 2'-O-(2-methoxyethyl) (MOE); d = 2'-deoxy (DNA)
# What was measured:
# rat SGLT2 mRNA [1] = assay: Rat SGLT2 mRNA levels in kidney, 1-10-1 and 1-10-2 MOE gapmers, Sprague-Dawley rats (Example 13, Table 63); format: in vivo
# From the text: 1-10-1 and 1-10-2 MOE gapmer antisense compounds, provided in Table 62, were designed to target different regions of the mouse or rat SGLT2 RNA. All short antisense compounds in Table 62 are chimeric oligonucleotides (“gapmers”) either 12 or 13 nucleotides in length, composed of a central “gap” segment consisting of ten 2′-deoxynucleotides, which are flanked on the 5′ side by a one-nucleoside “wing” and on the 3′ side by a two or one-nucleotide “wing”. […] All cytidine residues are 5-methylcytidines.
# The short antisense compounds were analyzed for their effect on rat SGLT2 mRNA levels. Data are ranges taken from three experiments in which Male Sprague-Dawley rats (170-200 g) were dosed twice per week for three weeks with 450, 150 or 50 nmol/kg of either a 1-10-1 or 1-10-2 MOE gapmer given by intraperitoneal injection. Rats were sacrificed 48 hours following last administration and evaluated for SGLT2 mRNA levels in kidney. Target levels were determined by RT, real-time PCR as described by other examples herein. PCR results were normalized to an internal ISIS control.
# SGLT-2 mRNA [2] = assay: SGLT-2 mRNA levels in kidney of normal rats after intrajejunal administration (Example 11); format: in vivo, rat; conditions: 100 mg/kg twice per week intrajejunal
# rat SGLT2 mRNA [3] = assay: Rat SGLT2 mRNA levels in kidney, 1-10-1 gapmers at 250 nmol/kg, Sprague-Dawley rats (Example 14, Table 66); format: in vivo; conditions: 250 nmol/kg i.p. twice per week for three weeks; Sprague-Dawley rats; kidney
# Protocol: The effect of the above 1-10-1gapmers (see Table 64 above) on rat SGLT2 mRNA levels. Data are taken from four experiments in which male Sprague-Dawley rats (170-200 g) were dosed twice per week for three weeks with 250 nmol/kg given by intraperitoneal injection. Rats were sacrificed 48 hours following last administration and evaluated for SGLT2 mRNA levels in kidney. Target levels were determined by RT, real-time PCR as described by other examples herein. PCR results were normalized to an internal ISIS control.
# SGLT-2 mRNA [4] = assay: SGLT-2 mRNA levels in kidney of ZDF rats, parent versus 12 nucleobase compound (Example 10); format: in vivo, rat
# Protocol: In a next study, ZDF rats were dosed intraperitoneally twice per week with 1.5 mg/kg of either ISIS 257016 or ISIS 370717, or with saline at a similar dosing schedule. ISIS 370717 is a 12 nucleobase antisense compound targeted to SGLT-2 nucleic acid comprising the sequence […] […] All cytidine residues are 5-methylcytidines.
# The date support that ISIS 257016 is a prodrug having a 12 nucleotide pharmacophore.
# mouse SGLT2 mRNA [5] = assay: Mouse SGLT2 mRNA levels in kidney, wing, gap and length variations (Example 12, Table 61); format: in vivo; conditions: mice
# Protocol: ISIS 370717 1-10-1 MOE gapmer was used as a template to make sequence related oligos with varying motifs. The antisense compounds were designed to target different regions of the mouse or rat SGLT2 nucleic acid, using published sequences (GenBank accession number U29881.1, incorporated herein as SEQ ID NO: 1575, and GenBank accession number AJ292928.1, incorporated herein as SEQ ID NO: 1576, respectively).
# The antisense compounds were analyzed for their effect on mouse SGLT2 mRNA levels. Data are ranges taken from three experiments in which mice were dosed twice per week for three weeks with 2.5, 0.5 or 0.1 umol/kg of the above MOE gapmers given by intraperitoneal injection. Mice were sacrificed 48 hours following last administration and evaluated for SGLT2 levels in kidney. SGLT2 mRNA levels were determined by RT, real-time PCR as described by other examples herein. PCR results were normalized to an internal ISIS control.
# mouse SGLT2 mRNA [6] = assay: Mouse SGLT2 mRNA levels in kidney, 1-10-1 MOE gapmers, Balb/c mice (Example 14, Table 65); format: in vivo
# Protocol: The short antisense compounds were analyzed for their effect on mouse SGLT2 mRNA levels. Data was taken from three experiments in which Male 6-week old Balb/c mice were dosed twice per week for two weeks with 450, 150, or 50 nmol/kg of one of the above 1-10-1 MOE gapmers given by intraperitoneal injection. Mice were sacrificed 48 hours following last administration and evaluated for SGLT2 mRNA levels in kidney. Target levels were determined by RT, real-time PCR as described by other examples herein. PCR results were normalized to an internal ISIS control.
# human SGLT2 = molecular target: T1, human SGLT2 (Homo sapiens, UniProt P31639); conditions: cited from earlier work
# T1 construct: host or cells: Xenopus oocytes (heterologous expression after injection)
# T1 sequence (P31639 1-672): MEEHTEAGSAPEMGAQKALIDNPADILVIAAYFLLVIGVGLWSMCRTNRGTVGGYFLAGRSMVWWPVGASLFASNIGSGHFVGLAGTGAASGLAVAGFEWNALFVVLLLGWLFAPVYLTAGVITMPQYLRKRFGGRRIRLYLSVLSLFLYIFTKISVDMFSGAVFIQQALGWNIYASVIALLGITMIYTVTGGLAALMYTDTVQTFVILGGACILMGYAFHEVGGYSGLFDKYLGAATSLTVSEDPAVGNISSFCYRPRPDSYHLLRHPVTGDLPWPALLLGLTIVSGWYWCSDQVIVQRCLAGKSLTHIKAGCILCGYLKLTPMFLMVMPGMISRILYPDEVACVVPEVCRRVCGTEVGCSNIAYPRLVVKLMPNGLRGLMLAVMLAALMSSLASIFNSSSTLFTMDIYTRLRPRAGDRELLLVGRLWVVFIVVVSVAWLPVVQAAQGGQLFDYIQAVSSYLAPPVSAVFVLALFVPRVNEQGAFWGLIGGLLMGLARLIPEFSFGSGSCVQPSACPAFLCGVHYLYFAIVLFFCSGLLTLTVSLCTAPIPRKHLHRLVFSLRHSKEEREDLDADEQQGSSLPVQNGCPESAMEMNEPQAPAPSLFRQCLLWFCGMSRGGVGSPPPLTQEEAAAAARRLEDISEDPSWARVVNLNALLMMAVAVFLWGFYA
compound,measurement,setting,value
"ISIS 370717: SGLT2; TAGCCACCAACT 1-10-1 MOE gapmer, phosphorothioate (sugars from the 5' end e1 d10 e1, all phosphorothioate, methylation of C not given here)",% change in SGLT2 expression relative to saline,rat SGLT2 mRNA [1]; 50 nmol/kg i.p. twice per week for three weeks,−55%
same,% change in SGLT2 expression relative to saline,rat SGLT2 mRNA [1]; 150 nmol/kg i.p. twice per week for three weeks,−70%
same,% change in SGLT2 expression relative to saline,rat SGLT2 mRNA [1]; 450 nmol/kg i.p. twice per week for three weeks,−70%
same,SGLT-2 mRNA reduced over the controls,SGLT-2 mRNA [2],more than 80%
same,% change in SGLT2 expression relative to saline,rat SGLT2 mRNA [3],−70%
same,pharmacological activity,"SGLT-2 mRNA [4]; ZDF rats, 1.5 mg/kg i.p. twice per week, five weeks",similar
same,onset of action,SGLT-2 mRNA [4]; compared with ISIS 257016,faster onset of action
same,inhibition of SGLT2 expression in kidney,SGLT-2 mRNA [4]; day two after a single dose of 2.8 umoles/kg,~80%
same,% change in SGLT2 expression relative to saline,mouse SGLT2 mRNA [5]; 0.1 umol/kg i.p. twice per week for three weeks,−55%
same,% change in SGLT2 expression relative to saline,mouse SGLT2 mRNA [5]; 0.5 umol/kg i.p. twice per week for three weeks,−70%
same,% change in SGLT2 expression relative to saline,mouse SGLT2 mRNA [6]; 50 nmol/kg i.p. twice per week for two weeks,−47.5%
same,% change in SGLT2 expression relative to saline,mouse SGLT2 mRNA [6]; 150 nmol/kg i.p. twice per week for two weeks,−55%
same,% change in SGLT2 expression relative to saline,mouse SGLT2 mRNA [6]; 450 nmol/kg i.p. twice per week for two weeks,−65%
O=C(CCc1ccc(O)cc1)c1c(O)cc(O)cc1O[C@@H]1O[C@H](CO)[C@@H](O)[C@H](O)[C@H]1O [phlorizin],transport activity,"human SGLT2; You et al., 1995",suppressed
"CO[C@H]1O[C@H](CO)[C@@H](O)[C@H](O)[C@H]1O [α-MeG1c, α-methyl-D-glucopyranoside]",Km,"human SGLT2; sodium-dependent transport (Kanai et al., 1994; You et al., 1995)",1600 µM
